Test results as given in patent US10189843B2, “Fused pyrazole derivative having autotaxin inhibitory activity” (The University of Tokyo, priority 2014, dated 2019).

Target: T1, Human autotaxin enzyme (Homo sapiens, UniProt Q13822)
T1 construct: purchased R&D System
Experiment: Evaluation of autotaxin inhibitor, Method C (18:0 Lyso PC substrate, choline assay, Resorufin fluorescence)
Format: biochemical
Conditions: Method C (Test Example 3), read-out: Inhibitory activity (enzyme inhibitory activity, IC50)
Procedure: Test Example 3 (Method C) Evaluation of Autotaxin Inhibitor
Solution B containing 100 mM Tris-HCl buffer (pH7.5), 150 mM NaCl, 5 mM MgCl2, and 0.05% Triton X-100 was prepared. Human autotaxin enzyme (purchased from R&D System) was diluted with Solution B, and 2.5 μl of which was added to a solution of test compound in DMSO. Furthermore, 2.5 μl of 200 μM 18:0 Lyso PC (purchased from Avanti Polar Lipids) in Solution B was added and allowed to react at room temperature for 2 hours. After completion of the reaction, 15 μl of the coline assay reagent (100 mM Tris-HCl buffer (pH7.5), 5 mM MgCl2, 77 μg/ml coline oxidase, 10 μg/ml peroxydase, 25 μM 10-acetyl-3,7-dihydroxyphenoxazine, and excess autotaxin inhibitor) was added and allowed to react at room temperature for 20 minutes. The fluorescent dye Resorufin, which was produced by the reaction, was detected. The fluorescence was detected using ViewLux (PerkinElmer, Inc.) with a excitation wavelength of 531 nm and a fluorescence wavelength of 598 nm.
The percent inhibition of the test compound was calculated by assuming the sample with no test compound as 0% inhibition and the sample with no enzyme as 100% inhibition, and the percent inhibitions at different concentrations of the test compound were plotted to obtain a concentration-dependent curve.

| Structure (SMILES) | IC50 [nM] |
| --- | --- |
| CCCOCC1CN(CC(=O)NCC(C)(C)O)C(=O)c2cc(-c3ccc(Cl)cc3)nn21 (stereo not shown) [Compound I-0252] | 10 to 100 |
| CCCCC1CN(CC(=O)NCCO)C(=O)c2cc(-c3ccc(Cl)cc3)nn21 (stereo not shown) [Compound I-0218] | 100 to 1000 |
| C[C@H]1CN(CC(=O)N(C)CCC#N)C(=O)c2cc(-c3ccc(C#N)cc3NC(=O)C3CC3)nn21 [Compound I-0350] | < 10 |
| CC(=O)Nc1cc(C#N)ccc1-c1cc2n(n1)[C@@H](C)CN(C1CCN(CC(F)(F)F)C1=O)C2=O (stereo partly shown) [Compound I-0367] | 10 to 100 |
| CCOC(=O)CN1CC(C)(C)n2nc(-c3ccc(Cl)cc3)cc2C1=O [Compound I-0014] | ≥ 1000 |
| CC(=O)NC1=C(c2cc3n(n2)[C@@H](C)CN(Cc2ccc(C#N)cc2)C3=O)C(=O)CC(C(F)(F)F)C1 (stereo partly shown) [Compound I-0368] | 10 to 100 |
| CCCCCC1CN(CC(=O)N[C@@H](C(=O)O)c2ccccc2)C(=O)c2cc(-c3ccc(Cl)cc3)nn21 (stereo partly shown) [Compound I-0064] | < 10 |
| CNC(=O)Cc1cc(Cl)ccc1-c1cc2n(n1)[C@@H](C)CN(Cc1ccc(C#N)cc1)C2=O [Compound I-0336] | ≥ 1000 |
| CCCCCC1CN(CC(=O)NCCCC(=O)O)C(=O)c2cc(-c3ccc(Cl)cc3)nn21 (stereo not shown) [Compound I-0047] | 10 to 100 |
| CCCCCC1CN(Cc2cccc(C#N)c2)C(=O)c2cc(-c3ccc(Cl)cc3)nn21 (stereo not shown) [Compound I-0131] | 100 to 1000 |
| CCCCC1CN(Cc2ccc(C#N)cc2)C(=O)c2cc(-c3ccc(Cl)cc3NC(C)=O)nn21 (stereo not shown) [Compound I-0189] | 10 to 100 |
| CC(=O)Nc1cc(Cl)ccc1-c1cc2n(n1)[C@@H](C(F)(F)F)CN(Cc1ccc(C#N)cc1)C2=O [Compound I-0343] | 10 to 100 |
| CCCCC1CN(CC(=O)NC(C#N)Cc2ccccc2)C(=O)c2cc(-c3ccc(Cl)cc3)nn21 (stereo not shown) [Compound I-0331] | 100 to 1000 |
| CCCCCC1CN(CC(=O)N2CCCCC2CC)C(=O)c2cc(-c3ccc(Cl)cc3)nn21 (stereo not shown) [Compound I-0091] | 100 to 1000 |
| CCCCC1CN(Cc2ccc(C#N)cc2)C(=O)c2cc(-c3ccc(OC)c(CO)c3)nn21 (stereo not shown) [Compound I-0206] | ≥ 1000 |
| C[C@H]1CN(Cc2cccc(C#N)c2)C(=O)c2cc(-c3ccc(Cl)cc3)nn21 [Compound I-0164] | 100 to 1000 |
| CCCCCC1CN(CC(=O)N2CCCC2CO)C(=O)c2cc(-c3ccc(Cl)cc3)nn21 (stereo not shown) [Compound I-0040] | 100 to 1000 |
| CC(=O)NC1=C(c2cc3n(n2)[C@@H](C)CN(Cc2ccc(C#N)cc2)C3=O)C(O)CC(C(F)(F)F)C1 (stereo partly shown) [Compound I-0369] | 100 to 1000 |
| CCCCCC1CN(CC(=O)N2CCCCC2CO)C(=O)c2cc(-c3ccc(Cl)cc3)nn21 (stereo not shown) [Compound I-0090] | 10 to 100 |
| CCCCC1CN(CC(=O)OC(C)(C)C)C(=O)c2cc(-c3ccc(Cl)cc3)nn21 (stereo not shown) [Compound I-0283] | 100 to 1000 |
| CCCCC1CN(CC(=O)N[C@@H]2CCC[C@H]2O)C(=O)c2cc(-c3ccc(Cl)cc3)nn21 (stereo partly shown) [Compound I-0221] | 100 to 1000 |
| C[C@H]1CN(Cc2ccc(C#N)cc2)C(=O)c2cc(-c3ccc(Cl)cc3CO)nn21 [Compound I-0297] | 100 to 1000 |
| CCCCC1CN(CC(=O)N2[C@@H]3CC[C@H]2C[C@@H](O)C3)C(=O)c2cc(-c3ccc(Cl)cc3)nn21 (stereo partly shown) [Compound I-0238] | 100 to 1000 |

| Structure (SMILES) | IC50 [nM] |
| --- | --- |
| CCCCC1CN(Cc2ccc(C#N)cc2)C(=O)c2cc(-c3ccc(OC(F)(F)F)cc3)nn21 (stereo not shown) [Compound I-0194] | 100 to 1000 |
| C[C@H]1CN(Cc2ccc(C(N)=O)cc2)C(=O)c2cc(-c3ccc(Cl)cc3)nn21 [Compound I-0169] | ≥ 1000 |
| CCCCC1CN(CC2(c3ccc(OC)cc3)CC2)C(=O)c2cc(-c3ccc(Cl)cc3)nn21 (stereo not shown) [Compound I-0272] | ≥ 1000 |
| CCCCC1CN(CC(=O)C2CCCCC2)C(=O)c2cc(-c3ccc(Cl)cc3)nn21 (stereo not shown) [Compound I-0254] | 10 to 100 |
| CCCCC1CN(Cc2ccc(C#N)cc2)C(=O)c2cc(-c3ccc(Cl)cc3NC(=O)NC)nn21 (stereo not shown) [Compound I-0309] | 100 to 1000 |
| CCCCC1CN(C2CCN(CC(F)(F)F)C2=O)C(=O)c2cc(-c3ccc(Cl)cc3)nn21 (stereo not shown) [Compound I-0264] | 10 to 100 |
| CCCOCC1CN(CC(=O)OC(C)(C)C)C(=O)c2cc(-c3ccc(Cl)cc3)nn21 (stereo not shown) [Compound I-0250] | 10 to 100 |
| CCCCC1CN(CC(=O)N(CC#N)CC#N)C(=O)c2cc(-c3ccc(Cl)cc3)nn21 (stereo not shown) [Compound I-0211] | 10 to 100 |
| CCCCC1CN(CC(=O)N2CCOC(C#N)C2)C(=O)c2cc(-c3ccc(Cl)cc3)nn21 (stereo not shown) [Compound I-0239] | 10 to 100 |
| CC(=O)Nc1cc(C#N)ccc1-c1cc2n(n1)C(CC(F)(F)F)CN(Cc1ccc(C#N)cc1)C2=O (stereo not shown) [Compound I-0370] | 10 to 100 |
| CCCCC1CN(CC(=O)N(C)CCC#N)C(=O)c2cc(-c3ccc(Cl)cc3)nn21 (stereo not shown) [Compound I-0209] | 10 to 100 |
| CCCCC1CN(C2CCCCC2=O)C(=O)c2cc(-c3ccc(Cl)cc3)nn21 (stereo not shown) [Compound I-0263] | 100 to 1000 |
| CCCCCC1CN(Cc2cccc(CC(=O)O)c2)C(=O)c2cc(-c3ccc(Cl)cc3)nn21 (stereo not shown) [Compound I-0120] | 10 to 100 |
| C[C@H]1CN(CC(=O)N2CCCC2)C(=O)c2cc(-c3ccc(Cl)cc3)nn21 [Compound I-0154] | ≥ 1000 |
| CCCCC1CN(CC(=O)NCC2(CO)COC2)C(=O)c2cc(-c3ccc(Cl)cc3)nn21 (stereo not shown) [Compound I-0237] | 100 to 1000 |
| CCCCCC1CN(Cc2ccc(NC(C)=O)cc2)C(=O)c2cc(-c3ccc(Cl)cc3)nn21 (stereo not shown) [Compound I-0133] | ≥ 1000 |
| CCCCCC1CN(CC(=O)N(C)CCN(C)C)C(=O)c2cc(-c3ccc(Cl)cc3)nn21 (stereo not shown) [Compound I-0102] | ≥ 1000 |
| O=C(O)c1cccc(CN2CC(COCC(F)(F)F)n3nc(-c4ccc(Cl)cc4)cc3C2=O)c1 (stereo not shown) [Compound I-0311] | < 10 |
| O=C1NCC(COCc2ccccc2)n2nc(-c3ccc(Cl)cc3)cc21 (stereo not shown) [Compound I-0024] | ≥ 1000 |
| CCCCCC1CN(Cc2ccc(CC(=O)O)cc2)C(=O)c2cc(-c3ccc(Cl)cc3)nn21 (stereo not shown) [Compound I-0124] | < 10 |
| CCCCCC1CN(Cc2ccc(CC(=O)OC)cc2)C(=O)c2cc(-c3ccc(Cl)cc3)nn21 (stereo not shown) [Compound I-0143] | ≥ 1000 |
| CCCCCC1CNC(=O)c2cc(-c3ccc(Cl)cc3)nn21 (stereo not shown) [Compound I-0001] | ≥ 1000 |
| CCCCCC1CN(CC(=O)N2CCCC2C)C(=O)c2cc(-c3ccc(Cl)cc3)nn21 (stereo not shown) [Compound I-0081] | 100 to 1000 |

| Structure (SMILES) | IC50 [nM] |
| --- | --- |
| CCCCCC1CN(CC(=O)N2CCC(O)CC2)C(=O)c2cc(-c3ccc(Cl)cc3)nn21 (stereo not shown) [Compound I-0094] | 10 to 100 |
| CCCCC1CN(CC(=O)N2CCC[C@@H]2C)C(=O)c2cc(-c3ccc(Cl)cc3)nn21 (stereo partly shown) [Compound I-0246] | 10 to 100 |
| CCCCCC1CN(Cc2ccccc2C)C(=O)c2cc(-c3ccc(Cl)cc3)nn21 (stereo not shown) [Compound I-0127] | ≥ 1000 |
| C[C@H]1CN(Cc2cccc(CC(=O)O)c2)C(=O)c2cc(-c3ccc(Cl)cc3)nn21 [Compound I-0163] | 100 to 1000 |
| CCCCCC1CN(CC(=O)NCc2ccccc2)C(=O)c2cc(-c3ccc(Cl)cc3)nn21 (stereo not shown) [Compound I-0099] | 100 to 1000 |
| CCCCC1CN(Cc2ccc(C#N)cc2)C(=O)c2cc(-c3ccc(Cl)cc3C=O)nn21 (stereo not shown) [Compound I-0204] | 10 to 100 |
| CCCCC1CN(CC(=O)NCc2cc(=O)[nH]o2)C(=O)c2cc(-c3ccc(Cl)cc3)nn21 (stereo not shown) [Compound I-0233] | 10 to 100 |
| C[C@H]1CN(CC(=O)N(C)CCC#N)C(=O)c2cc(-c3ccc(C#N)cc3NC(=O)CF)nn21 [Compound I-0353] | < 10 |
| CCCCC1CN(Cc2ccc(C#N)cc2)C(=O)c2cc(-c3ccc(Cl)cc3NS(C)(=O)=O)nn21 (stereo not shown) [Compound I-0308] | ≥ 1000 |
| N#Cc1ccc(CN2CC(COCC(F)(F)C(F)F)n3nc(-c4ccc(Cl)cc4)cc3C2=O)cc1 (stereo not shown) [Compound I-0190] | 10 to 100 |
| CNC(=O)Nc1cc(Cl)ccc1-c1cc2n(n1)[C@@H](C)CN(Cc1ccc(C#N)cc1)C2=O [Compound I-0342] | 100 to 1000 |
| CCCCCC1CN(CC(=O)N2CCCC[C@H]2C)C(=O)c2cc(-c3ccc(Cl)cc3)nn21 (stereo partly shown) [Compound I-0076] | 100 to 1000 |
| CCCCC1CN(CC2CCCO2)C(=O)c2cc(-c3ccc(Cl)cc3)nn21 (stereo not shown) [Compound I-0268] | 10 to 100 |
| CCCCC1CN(CNC(=O)CO)C(=O)c2cc(-c3ccc(Cl)cc3)nn21 (stereo not shown) [Compound I-0290] | 100 to 1000 |
| CCCCCC1CN(CC(=O)N2CCC(C(=O)O)CC2)C(=O)c2cc(-c3ccc(Cl)cc3)nn21 (stereo not shown) [Compound I-0007] | < 10 |
| CCCCCC1CN(Cc2ccccc2CS(=O)(=O)c2ccccc2)C(=O)c2cc(-c3ccc(Cl)cc3)nn21 (stereo not shown) [Compound I-0144] | ≥ 1000 |
| CCCCC1CN(CC(=O)N2CCC[C@H](C)C2)C(=O)c2cc(-c3ccc(Cl)cc3)nn21 (stereo partly shown) [Compound I-0242] | 100 to 1000 |
| CCCCC1CN(CC(=O)NCC(O)C(F)(F)F)C(=O)c2cc(-c3ccc(Cl)cc3)nn21 (stereo not shown) [Compound I-0216] | 100 to 1000 |
| CCCCCC1CN(c2cccc(CC(=O)O)c2)C(=O)c2cc(-c3ccc(Cl)cc3)nn21 (stereo not shown) [Compound I-0202] | ≥ 1000 |
| COCC(=O)Nc1cc(C#N)ccc1-c1cc2n(n1)[C@@H](C)CN(CC(=O)N(C)CCC#N)C2=O [Compound I-0351] | < 10 |
| CCCCC1CN(C2COC2)C(=O)c2cc(-c3ccc(Cl)cc3)nn21 (stereo not shown) [Compound I-0274] | 100 to 1000 |
